According to patent US20100311668A1, “PERSONAL CARE AND COSMETIC COMPOSITION CONTAINING TETRAPEPTIDES WITH THE MOTIFS GX1X2G, PX1X2P, OR PX1X2K” (EVONIK GOLDSCHMIDT GMBH, priority 2007, published 2010):
Values belong to the substance of their own block, whether it stands above or below them. Ends that are not written are not given here.

What was measured:
[1] = test system: hyaluronic acid synthetase 1 (HAS1); assay: Hyaluronic acid synthetase 1 (HAS1) mRNA expression in human dermal fibroblasts, quantitative PCR; format: cell-based; details: HDFs, 1 μg/ml peptide, 24 hours, vs PBS control, normalized to 18S rRNA
Experimental: (§1) FIG. 2: Hyaluronic acid synthetase 1 (HAS1) expression in human dermal fibroblasts (HDFs). […] Controls received PBS. Cells were harvested after 24 hours incubation and RNA was isolated. Expression of […] was determined by quantitative PCR. 18s rRNA served as house keeping gene for normalization. Given are means of three independent experiments.
(§2) Therefore, HDFs prepared from neonatal foreskin were cultured in EMEM (Life Technologies GmbH, Eggenstein, Germany) supplemented with 5% fetal calf serum (Greiner, Frickenhausen, Germany), 0.1% 1-glutamine, 2.5% NaHCO3, and 1% streptomycin/amphotericin B in a humidified atmosphere containing 5% CO2 for 4 days until they reached confluence as described by Schieke et al. J Invest Dermatol 2002, 119: 1323-9. […]
(§3) For isolation of total RNA RNeasy Total RNA Kits (Qiagen, Hilden; Germany) were used according to the manufacturer's guidelines. The RNA concentration was determined via photometric measurement at 260/280 (Biophotometer, Eppendorf, Hamburg, Germany).
(§4) Aliquots of total RNA (100 ng) were applied for cDNA-Synthesis using Superscript™ III First-Strand synthesis system for the reverse transcription step with random […] (Invitrogen, Karlsruhe, Germany). […] Three independent experiments were performed with 3 determinations each and the mean value of these was calculated. […] Each sample was analyzed in double employing the universal protocol over 46 cycles. […]

[2] = test system: collagen 1 alpha-2 (COL1A2); assay: Collagen 1 alpha-2 (COL1A2) mRNA expression in human dermal fibroblasts, quantitative PCR; format: cell-based; details: HDFs, 1 μg/ml peptide, 24 hours, vs PBS control, normalized to 18S rRNA
fibronectin 1 (FN1) = assay: Fibronectin 1 (FN1) mRNA expression in human dermal fibroblasts, quantitative PCR; format: cell-based; details: HDFs, 1 μg/ml peptide, 24 hours, vs PBS control, normalized to 18S rRNA
Experimental: as §1, with “1: Fibronectin” for “2: Hyaluronic acid synthetase”, “(FN1)” for “(HAS1)”
as §2, §3, §4

[3] = test system: human dermal fibroblasts (HDFs); assay: Collagen production in human dermal fibroblasts, Sircol Soluble Collagen Assay of culture supernatants; format: cell-based; details: 1 μg/ml peptide, 24 hours, vs PBS control
Experimental: FIG. 5: Collagen production in human dermal fibroblasts (HDFs). […] Controls received PBS. Cell culture supernatands were collected after 24 hours incubation. Amounts of collagen were determined as described above. Given are means of three independent experiments.
Therefore, HDFs prepared from neonatal foreskin were cultured in EMEM (Life Technologies GmbH, Eggenstein, Germany) supplemented with 5% fetal calf serum (Greiner, Frickenhausen, Germany), 0.1% 1-glutamine, 2.5% NaHCO3, and 1% streptomycin/amphotericin B in a humidified atmosphere containing 5% CO2 for 4 days until they reached confluence as described by Schieke et al. J Invest Dermatol 2002, 119: 1323-9. For all studies, only early passage (<12) fibroblasts have been used to avoid changes in their original phenotype during subculture. Cells were kept in 6 well plates for culture. Peptides dissolved in PBS were added at concentrations of 1 μg/ml and incubated for 24 hours.
The amount of collagen in cell culture supernatants was determined utilizing a Sircol™ Soluble Collagen Assay (# S1000) from Biocolor Ltd. (Newtownabbay, Northern Ireland, UK) following the guidelines of the manufacturer.

collagen = details: prior-art product background; cited from earlier work
[4] = test system: proinflammatory cytokines; assay: Inhibition of UV-induced expression of proinflammatory cytokines
[5] = test system: collagen 1 alpha-1 (COL1A1); assay: Collagen 1 alpha-1 (COL1A1) mRNA expression in human dermal fibroblasts, quantitative PCR; format: cell-based; details: HDFs, 1 μg/ml peptide, 24 hours, vs PBS control, normalized to 18S rRNA
Experimental: as §1, with “3: Collagen” for “2: Hyaluronic acid synthetase”, “alpha-1 (COL1A1)” for “(HAS1)”
as §2, §3, §4

- HAS1 expression [1]: strongest effects
Substance: GEPG (also: N-acyl group, acyl not given here) [SEQ ID NO:1, tetrapeptide GEPG]
- COL1A2 expression [2]: triggering effects

Substance: GPPG (also: N-acyl group, acyl not given here) [SEQ ID NO:2, tetrapeptide GPPG]
- FN1 expression (fibronectin 1 (FN1)): strongest effects

- HAS1 expression [1]: strongest effects
Substance: GEKG (also: N-acyl group, acyl not given here) [SEQ ID NO:3, tetrapeptide GEKG]
- collagen production (collagen protein in cell culture supernatants) [3]: markedly increased production of collagen

Substance: Val-Trp
- collagen stimulating activity (collagen): no significant collagen stimulating activity

Substance: PGPP (also: N-acyl group, acyl not given here) [SEQ ID NO:4, tetrapeptide PGPP]
- collagen production (collagen protein in cell culture supernatants) [3]: markedly increased production of collagen
- FN1 expression (fibronectin 1 (FN1)): strongest effects
- COL1A2 expression [2]: triggering effects

Substance: PKEK (also: N-acyl group, acyl not given here) [tetrapeptide PKEK]
- inhibition of UV-induced expression of proinflammatory cytokines [4]: inhibition of UV-induced expression of proinflammatory cytokines

Substance: GAGP [SEQ ID NO:11, tetrapeptide GAGP]
- COL1A1 expression [5]: Strongest effects
